The text below walks through data of patent publication US4157392A, “Pharmacologically active substituted 1,2,4-triazines” (Diamond Shamrock Corporation, priority 1978, dated 1979).

Experiment [1] relates to phenylquinone writhing in mice. Description: Phenylquinone Writhing Assay (analgesia). Type of experiment: in vivo, mouse (Carworth CF1 male mice). As to conditions: Mus musculus, po, read-out: Phenylquinone Writhing Assay (% Control), percent analgesia; for responders at 100 mg/kg: 100 mg/kg oral; for responders at 25 mg/kg: 25 mg/kg oral; for responders at 50 mg/kg: 50 mg/kg oral; for responders at 70 mg/kg: 70 mg/kg oral. The method in brief: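 Male CF1 mice (ten per group) dosed orally in 0.25% methylcellulose, then challenged i.p. with 0.02% phenylquinone at 15, 30, 60 or 120 min post-dose. Mice showing no writhing over 10 min count as protected; percent analgesia = number protected ×10.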

For experiment [2], the system named is carrageenin-induced edema in the hind paw of a rat. Kind of experiment: Carrageenin Assay (carrageenin-induced edema, hind paw). Format: in vivo, rat (male, Long Evans strain). As to conditions: Rattus norvegicus, 1 h before carrageenin, edema at 3 h, compared to phenylbutazone control values, read-out: % Reduction of Edema; for inhibition in vivo at 200 mg/kg: 200 mg/kg oral; for inhibition in vivo at 100 mg/kg: 100 mg/kg oral. The protocol:
The procedure employed is a modification of the method of Winter et al, Proc. Soc. Exptl. Biol. Med. 111:544 (1962). The device used for measurement of the paw volume is an adaptation of the water displacement procedure described by Adamkiewicz et al, Can. J. Biochem. Physiol. 33:332 (1955). Test compounds were administered orally, one hour prior to the intraplantar injection of 0.05 ml. of sterile 1.0 percent solution of carrageenin into the left hind paw of male rats (Long Evans strain) weighing between about 130-200 grams. At peak swelling time (3 hours) the volume of edema was calculated by differential paw volumes.
Table I sets forth the results obtained (indicated as percent reduction of edema compared to phenylbutazone control values) at the indicated dosages for each of the identified compounds.
Background: Carrageenan injected into the paw causes an acute inflammation.

Where two headings read alike, the source gives them in different places.

Consider `CSc1nncc(-c2ccc(F)cc2F)n1` [Example 42, 3-methylthio-5-(2',4'-difluorophenyl)-1,2,4-triazine], for which the responders at 100 mg/kg in experiment [1] (0.25 h, 15 Min.) was found to be 20%; in experiment [1] (0.5 h, 30 Min.), 10%. Moreover, the inhibition in vivo at 150 mg/kg in experiment [2] (150 mg/kg oral) came to 10%.

`CSc1nncc(C2CC2)n1` [Example 37, 3-methylthio-5-cyclopropyl-1,2,4-triazine]: the responders at 100 mg/kg in experiment [1] (0.25 h, 15 Min.) is 20%. The inhibition in vivo at 200 mg/kg in experiment [2] came out at 86%.

Turning to `C[C@@H]1CC[C@H](C)N1c1nnc(-c2ccccc2)c(-c2ccccc2)n1` [Example 52, 3-(cis-2',5'-dimethylpyrrolidyl)-5,6-diphenyl-1,2,4-triazine], the responders at 100 mg/kg stood at 30% in experiment [1] (0.5 h, 30 Min.) and 10% in experiment [1] (1 h, 60 Min). Also, the inhibition in vivo at 200 mg/kg in experiment [2] came to 22%.

As to `CSc1nnc(-c2ccccn2)c(-c2ccccn2)n1` [Example 12, 3-methylthio-5,6-(2'-pyridyl)-1,2,4-triazine], the responders at 100 mg/kg in experiment [1] (0.5 h, 30 Min.) is 10%; in experiment [1] (1 h, 60 Min), 20%. In experiment [2], the inhibition in vivo at 200 mg/kg amounted to 19%.

Consider `CCC(=O)NNc1nncc(-c2ccc(Cl)cc2)n1` [Example 108, 3-propionylhydrazino-5-(4'-chlorophenyl)-1,2,4-triazine], for which the responders at 25 mg/kg was found to be 30% in experiment [1] (0.25 h, 15 Min.); 50% in experiment [1] (0.5 h, 30 Min.); 50% in experiment [1] (1 h, 60 Min). In addition, in experiment [2], the inhibition in vivo at 100 mg/kg was 40%.

Take `COc1ccc(-c2nnc(N(C)CCO)nc2-c2ccc(OC)cc2)cc1` [Example 50, 3-(N-methyl-N-(B-hydroxyethyl)amino)-5,6-bis-(4'-methoxyphenyl)-1,2,4-triazine]: in experiment [1] (0.25 h, 15 Min.), the responders at 25 mg/kg is 30%, the responders at 50 mg/kg was 60% and the responders at 100 mg/kg was determined as 70%. Also, in experiment [1] (0.5 h, 30 Min.), the responders at 25 mg/kg was 40%, the responders at 50 mg/kg stood at 50% and the responders at 100 mg/kg was 100%. Besides, in experiment [1] (1 h, 60 Min), the responders at 25 mg/kg was 20%, the responders at 50 mg/kg was 40% and the responders at 100 mg/kg stood at 80%. Besides, the inhibition in vivo at 200 mg/kg in experiment [2] stood at 67%.

`Cc1nnc(OC(C)C)nc1C` [Example 24, 3-isopropoxy-5,6-dimethyl-1,2,4-triazine]: in experiment [1] (0.5 h, 30 Min.), the responders at 70 mg/kg amounted to 10%. Moreover, the inhibition in vivo at 200 mg/kg in experiment [2] came out at 37%.

For the compound `COc1nncc(C(C)(C)C)n1` [Example 18, 3-methoxy-5-t-butyl-1,2,4-triazine], the responders at 50 mg/kg in experiment [1] (0.5 h, 30 Min.) was found to be 40%. For the same compound, in experiment [2], the inhibition in vivo at 200 mg/kg is 64%.

Regarding `CSc1nncc(-c2cc3ccccc3o2)n1` [Example 35, 3-methylthio-5-(2'-benzofuryl)-1,2,4-triazine], the responders at 100 mg/kg in experiment [1] (0.25 h, 15 Min.) was 10%; in experiment [1] (0.5 h, 30 Min.), 10%; in experiment [1] (1 h, 60 Min), 10%. In addition, the inhibition in vivo at 200 mg/kg in experiment [2] came to 2%.

For `CN(CCO)c1nnc(-c2ccccc2)c(-c2ccccc2)n1` [Example 55, 3-(N-methyl-N-B-hydroxyethylamino)-5,6-diphenyl-1,2,4-triazine], in experiment [1] (0.25 h, 15 Min.), the responders at 100 mg/kg was 20%. Moreover, in experiment [2], the inhibition in vivo at 200 mg/kg was 23%.

For the compound `CSc1nncc(C23CC4CC(CC(C4)C2)C3)n1` [Example 34, 3-methylthio-5-(1'-adamantyl)-1,2,4-triazine], the responders at 100 mg/kg turned out to be 30% in experiment [1] (0.25 h, 15 Min.) and 10% in experiment [1] (0.5 h, 30 Min.). In addition, the inhibition in vivo at 200 mg/kg in experiment [2] came to 17%.

`COc1nncc(-c2cccc(C(F)(F)F)c2)n1` [Example 8, 3-methoxy-5-(3'-trifluoromethylphenyl)-1,2,4-triazine]: the responders at 70 mg/kg in experiment [1] (0.5 h, 30 Min.) turned out to be 10%. Besides, the inhibition in vivo at 100 mg/kg in experiment [2] amounted to 77%.

As to `COc1nncc(-c2ccc(OC)c(OC)c2)n1` [Example 38, 3-methoxy-5-(3',4'-dimethoxyphenyl)-1,2,4-triazine], the responders at 100 mg/kg amounted to 20% in experiment [1] (0.5 h, 30 Min.) and 10% in experiment [1] (1 h, 60 Min). For the same compound, the inhibition in vivo at 200 mg/kg in experiment [2] was found to be 52%.
